Measured values taken from the supplement of paper PMC10307832.

Tests used:
Experiment in all cases: relative viability (nuclei count vs DMSO), 5 days (fraction); higher = more cells survive
Carboplatin + Lapatinib = compound: C1CC(C1)(C(=O)O)C(=O)O.[NH2-].[NH2-].[Pt+2] [Carboplatin] + CS(=O)(=O)CCNCc1ccc(-c2ccc3ncnc(Nc4ccc(OCc5cccc(F)c5)c(Cl)c4)c3c2)o1 [Lapatinib] (partner 2 µM)
Summary of the method: (§1)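 For relative viability, nuclei counts in treated wells were divided by those in vehicle wells. Lung cancer cell lines had been pin-tool dosed in 1536-well plates the day after seeding and cultured for 5 days, then fixed and stained in one step (final 0.05% Triton X-100, 1% formaldehyde, 1 ug/ml Hoechst) and imaged at 4×. Doses were one drug alone or a fixed anchor-drug dose plus five library-drug doses (not always all listed) in √10 steps, and values are duplicate-plate medians.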

MLN4924 + Trametinib = compound: NS(=O)(=O)OC[C@@H]1C[C@@H](n2ccc3c(N[C@H]4CCc5ccccc54)ncnc32)C[C@@H]1O [MLN4924] + CC(=O)Nc1cccc(-n2c(=O)n(C3CC3)c(=O)c3c(Nc4ccc(I)cc4F)n(C)c(=O)c(C)c32)c1 [Trametinib] (partner 0.02 µM)
Summary of the method: as §1

MLN4924 + Palbociclib = compound: NS(=O)(=O)OC[C@@H]1C[C@@H](n2ccc3c(N[C@H]4CCc5ccccc54)ncnc32)C[C@@H]1O [MLN4924] + CC(=O)c1c(C)c2cnc(Nc3ccc(N4CCNCC4)cn3)nc2n(C2CCCC2)c1=O [Palbociclib] (partner 0.5 µM)
Summary of the method: as §1

MLN4924 + Crizotinib = compound: NS(=O)(=O)OC[C@@H]1C[C@@H](n2ccc3c(N[C@H]4CCc5ccccc54)ncnc32)C[C@@H]1O [MLN4924] + C[C@@H](Oc1cc(-c2cnn(C3CCNCC3)c2)cnc1N)c1c(Cl)ccc(F)c1Cl [Crizotinib] (partner 1 µM)
Summary of the method: as §1

| Cell Line | relative viability (Carboplatin + Lapatinib; first compound 0.08 µM) | relative viability (Carboplatin + Lapatinib; first compound 0.253 µM) | relative viability (Carboplatin + Lapatinib; first compound 0.8 µM) | relative viability (Carboplatin + Lapatinib; first compound 2.53 µM) | relative viability (Carboplatin + Lapatinib; first compound 8 µM) | relative viability (MLN4924 + Trametinib; first compound 0.04 µM) | relative viability (MLN4924 + Trametinib; first compound 0.1265 µM) | relative viability (MLN4924 + Trametinib; first compound 0.4 µM) | relative viability (MLN4924 + Trametinib; first compound 1.265 µM) | relative viability (MLN4924 + Trametinib; first compound 4 µM) | relative viability (MLN4924 + Palbociclib; first compound 0.04 µM) | relative viability (MLN4924 + Palbociclib; first compound 0.1265 µM) | relative viability (MLN4924 + Palbociclib; first compound 0.4 µM) | relative viability (MLN4924 + Palbociclib; first compound 1.265 µM) | relative viability (MLN4924 + Palbociclib; first compound 4 µM) | relative viability (MLN4924 + Crizotinib; first compound 0.04 µM) | relative viability (MLN4924 + Crizotinib; first compound 0.1265 µM) | relative viability (MLN4924 + Crizotinib; first compound 0.4 µM) | relative viability (MLN4924 + Crizotinib; first compound 1.265 µM) | relative viability (MLN4924 + Crizotinib; first compound 4 µM) |
| --- | --- | --- | --- | --- | --- | --- | --- | --- | --- | --- | --- | --- | --- | --- | --- | --- | --- | --- | --- | --- |
| NCI-H1793 | 0.941 | 0.49 | 0.485 | 0.628 | 0.833 | 0.417 | 0.426 | 0.508 | 0.376 | 0.294 | 0.338 | 0.295 | 0.442 | 0.265 | 0.214 | – | – | – | – | – |
| HCC-44 | 1.03 | 1.01 | 0.984 | 0.965 | 0.968 | 0.962 | 0.844 | 0.814 | 0.447 | 0.368 | 1 | 0.756 | 0.793 | 0.636 | 0.45 | 0.65 | 0.527 | 0.189 | 0.168 | 0.155 |
| NCI-H3122 | 1.1 | 1 | 0.981 | 0.953 | 0.995 | 0.25 | 0.162 | 0.204 | 0.136 | 0.098 | 0.162 | 0.0893 | 0.129 | 0.0849 | 0.0684 | 0.369 | 0.338 | 0.358 | 0.178 | 0.153 |
| COR-L23 | 0.946 | 0.919 | 0.67 | 0.728 | 0.419 | 0.633 | 0.683 | 0.416 | 0.162 | 0.122 | 0.267 | 0.3 | 0.215 | 0.0984 | 0.105 | 0.588 | 0.567 | 0.431 | 0.136 | 0.0871 |
| 201T | 1.06 | 1.08 | 1.11 | 1.08 | 0.99 | 0.786 | 0.676 | 0.523 | 0.3 | 0.322 | 0.395 | 0.353 | 0.354 | 0.219 | 0.26 | 1.05 | 0.994 | 0.984 | 0.401 | 0.391 |
| NCI-H23 | 1.16 | 1.25 | 1 | 1.02 | 0.783 | 0.403 | 0.391 | 0.326 | 0.201 | 0.167 | 0.478 | 0.441 | 0.26 | 0.175 | 0.2 | 0.579 | 0.481 | 0.301 | 0.122 | 0.139 |
| LCLC-103H | – | – | – | – | – | 0.697 | 0.651 | 0.513 | 0.331 | 0.307 | 0.47 | 0.421 | 0.352 | 0.265 | 0.32 | 1.13 | 1.09 | 0.713 | 0.289 | 0.321 |
| NCI-H2087 | 1.22 | 0.968 | 0.86 | 0.969 | 0.833 | 0.23 | 0.217 | 0.291 | 0.129 | 0.0965 | 0.184 | 0.184 | 0.19 | 0.0803 | 0.093 | 0.696 | 0.802 | 0.411 | 0.224 | 0.139 |
| NCI-H1944 | 0.783 | 0.978 | 0.833 | 0.919 | 0.586 | 0.388 | 0.353 | 0.329 | 0.193 | 0.186 | 0.374 | 0.371 | 0.366 | 0.197 | 0.178 | 1.06 | 0.842 | 0.649 | 0.179 | 0.167 |
| HARA | 0.816 | 0.842 | 0.841 | 0.654 | 0.695 | 0.671 | 0.79 | 0.357 | 0.114 | 0.111 | 0.324 | 0.233 | 0.169 | 0.0893 | 0.147 | 0.752 | 0.401 | 0.349 | 0.0875 | 0.0794 |
| NCI-H2347 | 1.02 | 0.926 | 0.918 | 0.949 | 0.888 | 0.312 | 0.32 | 0.284 | 0.265 | 0.293 | 0.426 | 0.46 | 0.399 | 0.312 | 0.339 | 0.525 | 0.53 | 0.484 | 0.42 | 0.412 |
| COR-L 105 | 0.354 | 0.349 | 0.381 | 0.332 | 0.382 | 0.433 | 0.417 | 0.422 | 0.3 | 0.339 | 0.414 | 0.395 | 0.337 | 0.321 | 0.34 | 0.802 | 0.472 | 0.344 | 0.194 | 0.222 |
| A-427 | 1.1 | 1.05 | 1.04 | 1.04 | 0.985 | 0.612 | 0.477 | 0.334 | 0.271 | 0.263 | 0.381 | 0.339 | 0.321 | 0.29 | 0.282 | 0.4 | 0.239 | 0.243 | 0.149 | 0.182 |
| HCC-15 | 0.919 | 0.854 | 0.875 | 0.814 | 0.66 | 0.362 | 0.279 | 0.191 | 0.105 | 0.106 | 0.477 | 0.172 | 0.196 | 0.0952 | 0.101 | 0.505 | 0.2 | 0.227 | 0.0834 | 0.0819 |
| NCI-H2342 | – | – | – | – | – | 0.834 | 0.757 | 0.759 | 0.727 | 0.54 | 0.53 | 0.575 | 0.591 | 0.635 | 0.449 | – | – | – | – | – |
| NCI-H2023 | 0.941 | 1.21 | 0.954 | 0.68 | 0.257 | 0.549 | 0.495 | 0.328 | 0.0604 | 0.0809 | 0.496 | 0.366 | 0.207 | 0.0822 | 0.0604 | 0.579 | 0.918 | 0.298 | 0.0965 | 0.0683 |
| ABC-1 | 1.12 | 1.55 | 0.848 | 0.902 | 1.17 | – | – | – | – | – | 1 | 1.02 | 0.695 | 0.316 | 0.498 | 0.901 | 0.29 | 0.132 | 0.0913 | 0.223 |
